Data reported in US4058665A, “Novel 3,15-dilower alkyl PGE2 derivatives” (Yamanouchi Pharmaceutical Co., Ltd., priority 1975, dated 1977).

Tests used:
[1] = Prostaglandins, 5, (5) 455-463 (1974); cited from earlier work
[2] = diarrhea activity, fasted rats, samples given by gastric tube, occurrence of diarrhea observed in the following 24 hours; parameters: species or system Sprague-Dawly rat; conditions: rat, in vivo, po, observed 24 hours, figures in parenthesis indicate confidence limit, read-out: ED50 diarrhea activity
Method: Each of five male Sprague-Dawly rats, 12 weeks old, in one group was fasted for 24 hours.

[3] = in vivo; cited from earlier work
[4] = system: male Sprague-Dawly rats; test: antiulcer activity, pylorus-ligated fasted rats, samples given by gastric tube, stomach inspected for ulcers 21 hours later; type: in vivo, Sprague-Dawly rat; conditions: for ED50: Rattus norvegicus, po, pylorus-ligated rats, 21 hours, figures in parenthesis indicate confidence limit; for b)/a) (ED50 diarrhea / ED50 antiulcer): ratio of diarrhea ED50 to antiulcer ED50, p.o., rats
Method: Each of ten male Sprague-Dawly rate, 12 weeks old, in one group was isolated in a cage with a large mesh wire net at the bottom during experimental period and prevented from coprophagia. During this period the animals were completely fasted for 48 hours and water was provided only for 32 hours from the beginning. The animal was anesthetized with ether, the pylorus was ligated through a short midline incision. The samples were administered with a gastric tube immediately after the ligation. The animals were sacrificed 21 hours later with chloroform and their abdomens were widely opened to take out the stomach. The stomach was opened for inspection of ulcers.

| Compound | anti-ulcer activity, in words [1] | TD50 at 24 h [2] | diarrhea as a side effect, in words [3] | ED50 [4] | b)/a) (ED50 diarrhea / ED50 antiulcer) [4] |
| --- | --- | --- | --- | --- | --- |
| CCCCC[C@@](C)(O)/C=C/[C@H]1[C@H](O)CC(=O)[C@@H]1C/C=C\CCCC(=O)OC [A, 11α, 15(R)-dihydroxy-15-methyl-9-oxo-5(cis),13(trans)-prostadienoic acid methyl ester] | strong anti-ulcer activity | 0.12 mg/kg | very severe diarrhea | 0.098 mg/kg | 1.2 |
| CCCCC[C@@](C)(O)/C=C/[C@H]1[C@H](O)CC(=O)[C@@H]1C/C=C\CC(C)CC(=O)OC (stereo partly drawn) [Compound C, 11α, 15(R)-dihydroxy-3,15-dimethyl-9-oxo-5(cis), 13(trans)-prostadienoic acid methyl ester] | – | 1.2 mg/kg | – | 0.2 mg/kg | 6.0 |
| CCCCC[C@](C)(O)/C=C/[C@H]1[C@H](O)CC(=O)[C@@H]1C/C=C\CCCC(=O)OC [B, 11α, 15(S)-dihydroxy-15-methyl-9-oxo-5(cis),13(trans)-prostadienoic acid methyl ester] | – | 0.047 mg/kg | – | 0.06 mg/kg | 0.8 |
